Some test systems named below: Escherichia coli ESBL; Klebsiella pneumoniae; Vibrio cholerae CUN 09.
Common to all, as to assay: ≥ marks a high value that may be exact or a test limit, other limits are often not marked, values filed in µg/mL are converted to µM
The subject of test [1] is Candida albicans ATCC 90028.
The subject of test [2] is Enterobacter cloacae NHTCC 53001.
The test system of test [3] is Escherichia coli ATCC 25922.
Test [4] concerns Klebsiella pneumoniae KK3 9904.
Test [5] concerns Pseudomonas aeruginosa ATCC 27853.
Test [6] deals with Staphylococcus aureus NCTC 8325.
Test [7] concerns Acinetobacter baumannii ATCC 19606.
The subject of test [8] is Bordetella bronchiseptica CUN 11844-99.
Test [9] concerns Pseudomonas aeruginosa CUN 4158-02.
Test [10] concerns Staphylococcus aureus ATCC 25923.
Test [11] concerns Staphylococcus aureus ATCC 43300.
Test [12] relates to Staphylococcus aureus CUN 3792-99.
Test [13] has as its system Stenotrophomonas maltophilia CUN 3998-00.

Molecules are shown by their SMILES. ≈ marks a conversion by molar mass, not a printed value.

For orientation: MIC means the smallest concentration in the dilution series that meets the test's criterion for growth inhibition. Read a low MIC as a more susceptible organism.

For the compound `CC[C@H](C)[C@@H]1NC(=O)[C@H](CCCCN)NC(=O)[C@@H](NC(=O)[C@H](CCCCN)NC(=O)[C@H](C)NC(=O)[C@H](CCC(N)=O)NC(=O)[C@H](CC(=O)O)NC(=O)[C@H](CC(C)C)NC(=O)[C@H](CC(C)C)NC(=O)[C@H](CO)NC(=O)CNC(=O)CNC(=O)[C@@H](NC(=O)[C@H](CC(N)=O)NC(=O)[C@H](CCCCN)NC(=O)[C@H](Cc2ccccc2)NC(=O)[C@@H](NC(=O)[C@H](Cc2cnc[nH]2)NC(=O)[C@H](CCCCN)NC(=O)CNC(=O)[C@@H](NC(=O)[C@@H](NC(=O)[C@H](CCCCN)NC(=O)[C@H](CC(C)C)NC(=O)[C@@H](NC(=O)CNC(=O)[C@H](CCCCN)NC(=O)[C@H](CC(C)C)NC(=O)[C@@H](NC(=O)[C@H](CO)NC(=O)[C@H](CC(C)C)NC(=O)[C@H](CC(C)C)NC(=O)CN)C(C)C)C(C)C)[C@@H](C)O)[C@@H](C)O)[C@@H](C)CC)C(C)C)CSSC[C@@H](C(=O)O)NC(=O)[C@H](CCC(N)=O)NC(=O)CNC(=O)[C@H](CO)NC1=O` [GLLSVLKGVLKTTGKHIFKNVGGSLLDQAKCKISGQC], the minimum inhibitory concentration (MIC) is at least 100 µM in test [1]; 3 µM (≈ 11.5 µg/mL) in test [2]; 3 µM (≈ 11.5 µg/mL) in test [3]; 6 µM (≈ 23 µg/mL) in [4]; 3 µM (≈ 11.5 µg/mL) in test [5]; 25 µM (≈ 96 µg/mL) in test [6].
On to `N=C(N)NCCC[C@H](NC(=O)CNC(=O)[C@H](CCCCN)NC(=O)[C@H](Cc1ccccc1)NC(=O)[C@H](CCCCN)NC(=O)[C@H](Cc1c[nH]c2ccccc12)NC(=O)[C@H](CCCNC(=N)N)NC(=O)[C@H](Cc1ccccc1)NC(=O)[C@H](CCCCN)NC(=O)[C@H](CCCCN)NC(=O)[C@H](Cc1ccc(O)cc1)NC(=O)[C@H](CCCNC(=N)N)NC(=O)[C@H](CCCNC(=N)N)NC(=O)CN)C(=O)N[C@@H](Cc1c[nH]c2ccccc12)C(=O)N[C@@H](Cc1ccccc1)C(=O)N[C@@H](Cc1c[nH]c2ccccc12)C(=O)N[C@@H](Cc1ccccc1)C(=O)NCC(=O)O` [GRRYKKFRWKFKGRWFWFG], for which the MIC in [7] is 6.07 µM (≈ 16 µg/mL); in [8], at least 48.5 µM; in test [3], 6.07 µM (≈ 16 µg/mL); in the test on Escherichia coli ESBL, 6.07 µM (≈ 16 µg/mL); against Klebsiella pneumoniae, 12.1 µM (≈ 32 µg/mL); in [5] it was 6.07 µM (≈ 16 µg/mL). Further, the minimal inhibitory concentration (MIC) is 12.1 µM (≈ 32 µg/mL) in test [9]; 3.03 µM (≈ 8 µg/mL) in [10]; 3.03 µM (≈ 8 µg/mL) in test [11]; 3.03 µM (≈ 8 µg/mL) in [12]; 12.1 µM (≈ 32 µg/mL) in test [13]; 6.07 µM (≈ 16 µg/mL) with Vibrio cholerae CUN 09.
